Data published in the NIST ThermoML archive (doi:10.1016/j.fluid.2010.05.019).

Legend:
[1] = 298.15 K, Liquid; for electrical conductivity: 101 kPa, Alternating current cell with electrodes; for viscosity / mass density: 101.33 kPa; for viscosity: Cone and plate viscometry; for mass density: Pycnometric method
[2] = wn = mass fraction of the nth substance listed; conditions: 298.15 K, 101 kPa, Liquid, Alternating current cell with electrodes

C1CC[NH2+]C1.CC(=O)[O-] [pyrrolidinium acetate]
[1]
Conditions	electrical conductivity [S/m]	mass density [kg/m3]	viscosity [mPa·s]
–	0.594	1054.3	30.2

C1CC[NH2+]C1.CCCCCCCCC(=O)[O-] [pyrrolidinium nonanoate] + O
[2]
Conditions	electrical conductivity [S/m]
w2 = 0	0.064
w2 = 0.0476	0.073
w2 = 0.0909	0.122
w2 = 0.1667	0.295
w2 = 0.2	0.392
w2 = 0.2593	0.579
w2 = 0.3103	0.754
w2 = 0.3548	0.915
w2 = 0.3939	1.07
w2 = 0.4595	1.29
w2 = 0.5	1.44
w2 = 0.5556	1.61
w2 = 0.5833	1.68
w2 = 0.6	1.73
w2 = 0.6154	1.76
w2 = 0.6296	1.79
w2 = 0.6429	1.81
w2 = 0.6552	1.84
w2 = 0.6667	1.85
w2 = 0.7143	1.87
w2 = 0.8065	1.63
w2 = 0.902	1.08

O [water] + C1CC[NH2+]C1.CCCCCC(=O)[O-]
Conditions	electrical conductivity [S/m]
[2], w1 = 1	0.0001

O [water] + O=C[O-].c1ccc2[nH+]cccc2c1
Conditions	electrical conductivity [S/m]
[2], w1 = 1	0.0001

O [water] + C1CC[NH2+]C1.CC(=O)[O-]
Conditions	electrical conductivity [S/m]
[2], w1 = 1	0.0001

CC[NH+](C(C)C)C(C)C.O=C[O-] [ethyldiisopropylammonium formate] + O
[2]
Conditions	electrical conductivity [S/m]
w2 = 0	0.586
w2 = 0.0625	0.88
w2 = 0.1176	1.13
w2 = 0.1667	1.39
w2 = 0.2105	1.67
w2 = 0.25	1.96
w2 = 0.3182	2.4
w2 = 0.3478	2.63
w2 = 0.4231	3.11
w2 = 0.4643	3.36
w2 = 0.5	3.51
w2 = 0.5588	3.86
w2 = 0.5833	3.93
w2 = 0.6053	3.96
w2 = 0.625	3.97
w2 = 0.6429	3.97
w2 = 0.6591	3.96
w2 = 0.7	3.97
w2 = 0.7115	3.97
w2 = 0.7222	3.96

O [water] + Cc1cccc[n+]1C.O=C[O-]
Conditions	electrical conductivity [S/m]
[2], w1 = 1	0.0001

C1CC[NH2+]C1.CCCCCC(=O)[O-] [pyrrolidinium hexanoate]
[1]
Conditions	electrical conductivity [S/m]	mass density [kg/m3]	viscosity [mPa·s]
–	0.204	988	27.4

O [water]
Conditions	electrical conductivity [S/m]
[1]	0.0001

C1CC[NH2+]C1.CCCCCCCC(=O)[O-] [pyrrolidinium octanoate]
[1]
Conditions	electrical conductivity [S/m]	mass density [kg/m3]	viscosity [mPa·s]
–	0.08	949.5	36.5

O [water] + CC[NH+](C(C)C)C(C)C.O=C[O-]
Conditions	electrical conductivity [S/m]
[2], w1 = 1	0.0001

C1CC[NH2+]C1.CCCCCCCCC(=O)[O-] [pyrrolidinium nonanoate]
[1]
Conditions	electrical conductivity [S/m]	mass density [kg/m3]	viscosity [mPa·s]
–	0.064	931.5	74.4

C1CC[NH2+]C1.O=C[O-] [pyrrolidinium formate] + O
[2]
Conditions	electrical conductivity [S/m]
w2 = 0	3.29
w2 = 0.0251	4.01
w2 = 0.0501	4.44
w2 = 0.0907	4.95
w2 = 0.1666	5.99
w2 = 0.2304	6.71
w2 = 0.2853	7.2
w2 = 0.3329	7.54
w2 = 0.3745	7.73
w2 = 0.4113	7.83
w2 = 0.4439	7.83
w2 = 0.4995	7.77
w2 = 0.5647	7.33
w2 = 0.5828	7.04
w2 = 0.6662	6.36
w2 = 0.7055	5.92
w2 = 0.7496	5.36
w2 = 0.7917	4.48
w2 = 0.8607	3.18
w2 = 0.9018	2.13
w2 = 0.9106	1.88

O [water] + C1CC[NH2+]C1.O=C[O-]
Conditions	electrical conductivity [S/m]
[2], w1 = 1	0.0001

C1CC[NH2+]C1.O=[N+]([O-])[O-] [pyrrolidinium nitrate] + O
[2]
Conditions	electrical conductivity [S/m]
w2 = 0	5.01
w2 = 0.0476	6.79
w2 = 0.0908	7.74
w2 = 0.1665	9.11
w2 = 0.1999	9.7
w2 = 0.2591	10.4
w2 = 0.3101	10.9
w2 = 0.3546	11.1
w2 = 0.3937	11.3
w2 = 0.4592	11.2
w2 = 0.4998	10.8
w2 = 0.5553	10.9
w2 = 0.5998	10.4
w2 = 0.655	9.97
w2 = 0.7013	9.42
w2 = 0.7999	7.86
w2 = 0.8504	6.1
w2 = 0.9074	4.5
w2 = 0.96	2.5
w2 = 0.9987	0.122

O=C[O-].c1ccc2[nH+]cccc2c1 [quinolinium formate]
[1]
Conditions	electrical conductivity [S/m]	mass density [kg/m3]	viscosity [mPa·s]
–	0.415	1153	8.2

C1CC[NH2+]C1.CCCCCCC(=O)[O-] [pyrrolidinium heptanoate] + O
[2]
Conditions	electrical conductivity [S/m]
w2 = 0	0.186
w2 = 0.0476	0.528
w2 = 0.0909	0.74
w2 = 0.1489	1.13
w2 = 0.2	1.41
w2 = 0.2593	1.8
w2 = 0.2857	1.97
w2 = 0.3103	2.12
w2 = 0.3333	2.22
w2 = 0.3548	2.31
w2 = 0.375	2.38
w2 = 0.3939	2.42
w2 = 0.403	2.44
w2 = 0.4203	2.47
w2 = 0.4444	2.53
w2 = 0.4595	2.56
w2 = 0.4872	2.59
w2 = 0.5	2.6
w2 = 0.5238	2.61
w2 = 0.5556	2.62
w2 = 0.608	2.47
w2 = 0.7011	2.12
w2 = 0.805	1.52
w2 = 0.905	0.728

C1CC[NH2+]C1.CCCCCCCC(=O)[O-] [pyrrolidinium octanoate] + O
[2]
Conditions	electrical conductivity [S/m]
w2 = 0	0.08
w2 = 0.0475	0.223
w2 = 0.0908	0.347
w2 = 0.1664	0.635
w2 = 0.1997	0.795
w2 = 0.2589	1.06
w2 = 0.31	1.31
w2 = 0.3544	1.58
w2 = 0.3935	1.7
w2 = 0.459	1.93
w2 = 0.4996	2.06
w2 = 0.5551	2.18
w2 = 0.5996	2.23
w2 = 0.6292	2.23
w2 = 0.6548	2.22
w2 = 0.7011	2.17
w2 = 0.7558	2.03
w2 = 0.7724	1.97
w2 = 0.8037	1.83
w2 = 0.8212	1.68
